In patent publication US20250188092A1, “RIFAMYCIN ANALOGS” (THE REGENTS OF THE UNIVERSITY OF MICHIGAN, priority 2021, published 2025):
≈ marks a conversion by molar mass, not a printed value. Where two headings read alike, the source gives them in different places.

How the values were obtained:
MTB H37Rv ATCC 27294 = test: MIC, microplate Alamar Blue assay (MABA); assay type: cell-based, Mycobacterium tuberculosis; conditions: for MIC / MIC90: MTB H37Rv ATCC 27294, microplate Alamar Blue assay, lowest concentration giving ≥90% reduction in fluorescence; for MIC: read-out: MIC90 MABA
[1] = target: T1, E. coli S531L (RIF^R) RNAP (Escherichia coli, UniProt P0A8V2, S531L); test: biochemical
T1 construct: made in house

VERO cells (ATCC CRL-81) = test: Vero cell toxicity; assay type: cell-based; conditions: 72 hours exposure
Description: Cytotoxicity for a mammalian cell line was determined by exposing VERO cells (ATCC CRL-81) to serial dilutions of test compounds for 72 hours, followed by addition of resazurin and measurement of fluorescence after 4 hours incubation (Choules, et al., Antimnicrob. Agents Chemother. 2019, 63, e02204-02218).

E. coli WT RNAP = target: T2, E. coli WT RNAP (Escherichia coli, UniProt P0A8V2); test: biochemical
T2 construct: made in house

[2] = target: T3, E. coli D516V (RIF^R) RNAP (Escherichia coli, UniProt P0A8V2, D516V); test: biochemical
T3 construct: made in house

M. tuberculosis H37Rv = test: Minimum bactericidal concentration (MBC, CFU Assay); assay type: cell-based, Mycobacterium tuberculosis; conditions: for MBC99 Day 7 (CFU Assay) MBC99 Rel to RMP: CFU Assay MBC99 relative to rifampin (RMP = 1); for MBC: Mycobacterium tuberculosis, 168 h, Day 7, M. tuberculosis H37Rv, ≥99% reduction in colony forming units, read-out: MBC99 Day 7 (CFU Assay) MBC99
WT MTB RNAP = target: T4, WT MTB RNAP (Mycobacterium tuberculosis, UniProt P9WGY9); assay type: biochemical; conditions: lower limit of detection ~5 nM
T4 construct: made in house; host or cells: E. coli BL21(DE3)

[3] = target: T5, human pregnane X receptor (hPXR) (Homo sapiens, UniProt O75469)
T5 sequence (O75469 1-434): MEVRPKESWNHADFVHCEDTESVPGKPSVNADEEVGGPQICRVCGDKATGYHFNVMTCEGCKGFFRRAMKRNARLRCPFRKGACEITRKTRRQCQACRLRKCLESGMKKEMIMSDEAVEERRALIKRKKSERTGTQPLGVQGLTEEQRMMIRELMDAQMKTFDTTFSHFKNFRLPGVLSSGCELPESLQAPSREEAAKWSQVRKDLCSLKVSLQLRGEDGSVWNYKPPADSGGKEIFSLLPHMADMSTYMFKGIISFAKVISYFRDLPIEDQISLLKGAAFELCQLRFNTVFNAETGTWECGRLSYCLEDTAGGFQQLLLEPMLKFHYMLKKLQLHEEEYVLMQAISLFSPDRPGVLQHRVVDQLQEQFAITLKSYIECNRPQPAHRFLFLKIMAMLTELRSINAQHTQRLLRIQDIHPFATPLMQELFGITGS

| SMILES | MIC90 MABA Rel to RMP (MTB H37Rv ATCC 27294) | MIC (MTB H37Rv ATCC 27294; Mycobacterium tuberculosis) | IC50 [1] | IC50 (VERO cells (ATCC CRL-81); Chlorocebus sabaeus, Vero) | IC50 (E. coli WT RNAP) | IC50 [2] | MBC99 Day 7 (CFU Assay) MBC99 Rel to RMP (M. tuberculosis H37Rv) | MBC (M. tuberculosis H37Rv) | DPX2 Viability @ 6.25 μM (DPX2 cells; 6.25 μM, 24 h) | DPX2 Viability @ 25 μM (DPX2 cells; human) | MIC90 (MTB H37Rv ATCC 27294; Mycobacterium tuberculosis) | MIC90 (MTB H37Rv ATCC 27294) | IC50 (VERO cells (ATCC CRL-81)) | IC50 (WT MTB RNAP) | hPXR Fold Act. (lucif) @ 6.25 μM [3] | hPXR Fold Act. (lucif) @ 25 μM [3] | DPX2 Viability @ 6.25 μM (DPX2 cells) | DPX2 Viability @ 25 μM (DPX2 cells) | hPXR Fold Act. (lucif) @ 6.25 μM ([3]; 6.25 μM, 24 h) | hPXR Fold Act. (lucif) @ 25 μM ([3]; 25 μM, 24 h) |
| --- | --- | --- | --- | --- | --- | --- | --- | --- | --- | --- | --- | --- | --- | --- | --- | --- | --- | --- | --- | --- |
| CO[C@H]1/C=C/O[C@@]2(C)Oc3c(C)c(O)c4c(=O)c(c5oc6cccc(OCc7ccc(CN8CCN(C(=O)Cn9ccnc9)CC8)cc7)c6nc-5c4c3C2=O)NC(=O)/C(C)=C\C=C\[C@H](C)[C@H](O)[C@@H](C)[C@@H](O)[C@@H](C)[C@H](OC(C)=O)[C@@H]1C [Compound 16b, (7S,9E,11S,12R,13S,14R,15R,16R,17S,18S,19E,21Z)-2,15,17-Trihydroxy-32-{[4-({4-[2-(1H-imidazol-1-yl)acetyl]piperazin-1-yl}methyl)phenyl]methoxy}-11-methoxy-3,7,12,14,16,18,22-heptamethyl-6,23,37-trioxo-8,27,38-trioxa-24,34-diazahexacyclo[23.11.1.1^4,7.0^5,36.0^26,35.0^28,33]octatriaconta-1(36)2,4,9,19,21,25,28,30,32,34-undecaen-13-yl acetate] | 1.6 | 0.029 µM | 160 µM | > 8 µM | 0.005 µM | 24 µM | 0.15 | 0.02 µM | 117% | 76% | – | – | – | – | – | – | – | – | – | – |
| CO[C@H]1/C=C/O[C@@]2(C)Oc3c(C)c(O)c4c(=O)c(c5oc6cc(N7CCN(CC(C)C)CC7)cc(OCc7ccc(CN8CCN(C(=O)Cn9ccnc9)CC8)cc7)c6nc-5c4c3C2=O)NC(=O)/C(C)=C\C=C\[C@H](C)[C@H](O)[C@@H](C)[C@@H](O)[C@@H](C)[C@H](OC(C)=O)[C@@H]1C [Compound 17c, (7S,9E,11S,12R,13S,14R,15R,16R,17S,18S,19E,21Z)-2,15,17-Trihydroxy-32-{[4-({4-[2-(1H-imidazol-1-yl)acetyl]piperazin-1-yl}methyl)phenyl]methoxy}-11-methoxy-3,7,12,14,16,18,22-heptamethyl-30-[4-(2-methylpropyl)piperazin-1-yl]-6,23,37-trioxo-8,27,38-trioxa-24,34-diazahexacyclo[23.11.1.1^4,7.0^5,36.0^26,35.0^28,33]octatriaconta-1(36)2,4,9,19,21,25,28,30,32,34-undecaen-13-yl acetate] | 1.3 | 0.023 µM | 100 µM | > 8 µM | 0.02 µM | 12 µM | 0.15 | 0.02 µM | 102% | 94% | – | – | – | – | – | – | – | – | – | – |
| CO[C@H]1/C=C/O[C@@]2(C)Oc3c(C)c(O)c4c(=O)c(c5oc6cc(N7CCN(CC(C)C)CC7)cc(OCc7ccc(CN8CCN(C(=O)CN9CCOCC9)CC8)cc7)c6nc-5c4c3C2=O)NC(=O)/C(C)=C\C=C\[C@H](C)[C@H](O)[C@@H](C)[C@@H](O)[C@@H](C)[C@H](OC(C)=O)[C@@H]1C [Compound 17d, (7S,9E,11S,12R,13S,14R,15R,16R,17S,18S,19E,21Z)-2,15,17-Trihydroxy-11-methoxy-3,7,12,14,16,18,22-heptamethyl-30-[4-(2-methylpropyl)piperazin-1-yl]-32-{[4-({4-[2-(morpholin-4-yl)acetyl]piperazin-1-yl}methyl)phenyl]methoxy}-6,23,37-trioxo-8,27,38-trioxa-24,34-diazahexacyclo[23.11.1.1^4,7.0^5,36.0^26,35.0^28,33]octatriaconta-1(36)2,4,9,19,21,25,28,30,32,34-undecaen-13-yl acetate] | – | – | 32 µM | > 8 µM | 0.016 µM | 7.3 µM | 0.15 | 0.02 µM | 104% | 84% | < 0.016 µM | – | – | – | – | – | – | – | – | – |
| CO[C@H]1/C=C/O[C@@]2(C)Oc3c(C)c(O)c4c(=O)c(c5oc6cc(N7CCC(CC(=O)O)CC7)cc(OCc7ccc(CN8CCOCC8)cc7)c6nc-5c4c3C2=O)NC(=O)/C(C)=C\C=C\[C@H](C)[C@H](O)[C@@H](C)[C@@H](O)[C@@H](C)[C@H](OC(C)=O)[C@@H]1C [Compound 17l, 2-{1-[(7S,9E,11S,12R,13S,14R,15R,16R,17S,18S,19E,21Z)-13-(acetyloxy)-2,15,17-trihydroxy-11-methoxy-3,7,12,14,16,18,22-heptamethyl-32-{[4-(morpholin-4-ylmethyl)phenyl]methoxy}-6,23,37-trioxo-8,27,38-trioxa-24,34-diazahexacyclo-[23.11.1.1^4,7.0^5,36.0^26,35.0^28,33]octatriaconta-1,3,5(36)9,19,21,25,28,30,32,34-undecaen-30-yl]piperidin-4-yl)acetic acid] | 7.0 | – | – | – | – | – | – | – | – | – | – | 0.187 µM (≈ 0.212 µg/mL) | > 10 µM | 0.013 µM | 1.1 fold | 1.9 fold | 107% | 102% | – | – |
| CO[C@H]1/C=C/O[C@@]2(C)Oc3c(C)c(O)c4c(=O)c(c5oc6cc(N7CCN(C(=O)c8ccc(-c9ccc(C(N)=O)cc9)cc8)CC7)cc(OCc7ccc(CN8CCOCC8)cc7)c6nc-5c4c3C2=O)NC(=O)/C(C)=C\C=C\[C@H](C)[C@H](O)[C@@H](C)[C@@H](O)[C@@H](C)[C@H](OC(C)=O)[C@@H]1C [Compound 17t, (7S,9E,11S,12R,13S,14R,15R,16R,17S,18S,19E,21Z)-30-(4-{[4-(4-carbamoylphenyl)-phenyl]carbonyl}piperazin-1-yl)-2,15,17-trihydroxy-11-methoxy-3,7,12,14,16,18,22-heptamethyl-32-{[4-(morpholin-4-ylmethyl)phenyl]methoxy}-6,23,37-trioxo-8,27,38-trioxa-24,34-diazahexacyclo[23.11.1.1^4,7.0^5,36.0^26,35.0^28,33]octatriaconta-1,3,5(36)9,19,21,25,28,30,32,34-undecaen-13-yl acetate] | 0.6 | – | – | – | – | – | – | – | 100% | – | – | 0.032 µM | 55 µM | – | – | – | – | – | 1.3 fold | 2.1 fold |
| CO[C@H]1/C=C/O[C@@]2(C)Oc3c(C)c(O)c4c(=O)c(c5oc6cc(N7CCC(CC(=O)O)CC7)cc(N7CCC(CC(=O)O)CC7)c6nc-5c4c3C2=O)NC(=O)/C(C)=C\C=C\[C@H](C)[C@H](O)[C@@H](C)[C@@H](O)[C@@H](C)[C@H](OC(C)=O)[C@@H]1C [Compound 17v, 2-{1-[(7S,9E,11S,12R,13S,14R,15R,16R,17S,18S,19E,21Z)-13-(acetyloxy)-32-[4-(carboxymethyl)piperidin-1-yl]-2,15,17-trihydroxy-11-methoxy-3,7,12,14,16,18,22-heptamethyl-6,23,37-trioxo-8,27,38-trioxa-24,34-diazahexacyclo-[23.11.1.1^4,7.0^5,36.0^26,35.0^28,33]octatriaconta-1,3,5(36)9,19,21,25,28,30,32,34-undecaen-30-yl]piperidin-4-yl)acetic acid] | – | – | – | – | – | – | – | – | – | – | – | – | > 10 µM | 0.027 µM | 1.2 fold | 1.6 fold | 110% | 100% | – | – |
| CO[C@H]1/C=C/O[C@@]2(C)Oc3c(C)c(O)c4c(=O)c(c5oc6cc(C)cc(N7CCN(C)CC7)c6nc-5c4c3C2=O)NC(=O)/C(C)=C\C=C\[C@H](C)[C@H](O)[C@@H](C)[C@@H](O)[C@@H](C)[C@H](OC(C)=O)[C@@H]1C [Compound 30a, (7S,9E,11S,12R,13S,14R,15R,16R,17S,18S,19E,21Z)-2,15,17-Trihydroxy-11-methoxy-3,7,12,14,16,18,22,30-octamethyl-32-(4-methylpiperazin-1-yl)-6,23,37-trioxo-8,27,38-trioxa-24,34-diazahexacyclo[23.11.1.1^4,7.0^5,36.0^26,35.0^28,33]octatriaconta-1(36)2,4,9,19,21,25,28,30,32,34-undecaen-13-yl acetate] | <0.6 | – | – | – | – | – | – | – | – | – | – | <0.016 µM | > 8 µM | – | 4.6 fold | 20.4 fold | 92% | 47% | – | – |
